Laboratory results published in patent publication US7582279B2, “Blood-pool carrier for lipophilic imaging agents” (The Board of Regents of the University of Michigan, priority 1994, dated 2009).

Tested on: VX2 tumors
Assay: CT of hepatic VX2 tumors, co-administration study
Type: in vivo, rabbits
Conditions: VX2 rabbit
From the text: In a particularly advantageous embodiment of the invention, a hepatocyte-selective oil-in-water emulsion is co-administered with the blood-pool agent of the present invention. Liver-selective particulate agents (hepatocyte-selective or Kupffer cell-selective) clear rapidly from the blood and render the blood hypodense relative to surrounding liver tissue. It is very difficult to separate small tumors, which also appear as hypodense areas from small vasculature in the sub 5 mm size range. In order to compensate for this problem, DHOG-PEG (Example 1) and hepatocyte-selective DHOG-LE (Emulsion Example 6, non-radioactive form) were co-administered to rabbits bearing VX2 tumors.
Rabbits (mean weight 2.5 kg) were inoculated with VX2 carcinoma directly into the hepatic parenchyma to produce a total of 8 focal lesions (2-10 mm). Ten days later, the rabbits were scanned with multiple techniques including noncontrast, helical IV enhanced (600 mg I/kg iohexol), and 24 hours later using the iodinated microparticulate emulsion (200 mg I/kg). Tissue density measurements (HU) were made of liver, lesions, and blood (descending aorta). Tumor morphology was verified by gross pathologic examination.

[1] = iohexol 600 mg I/kg, emulsion 200 mg I/kg

For `CC(=O)N(CC(O)CO)c1c(I)c(C(=O)NCC(O)CO)c(I)c(C(=O)NCC(O)CO)c1I` (stereo not drawn) [iohexol], the “lesion detection (sensitivity), Lesions < 1 cm” value was 49.3, the “lesion detection (sensitivity), Lesions > 1 cm” value was 97.6 and the “lesion detection (sensitivity), Overall” value was 67.6. For the same compound, the liver-to-lesion difference was 28.8, the “enhancement of liver tissue” value [1] was “+66.8 HU” and the tumor enhancement [1] was “+40.1 HU”.
